US9340559B2, “Proteasome inhibitor delanzomib for use in the treatment of lupus” (Cephalon, Inc., priority 2011, dated 2016)

How the values were obtained:
Format in all cases: in vivo, mouse
[1] = test system: NZM mice; conditions: G7 50 mg/kg 1× wk ip
[2] = test system: NZM mice; assay: Collagen type-I cross-linker (CTx) bone resorption biomarker ELISA, serum of NZM mice; conditions: G6 50 mg/kg ip, 1× wk
Method: Assay is performed as instructed by the manufacturer. Briefly, biotinylated ratlaps antigen is first added in each well of a 96-well ELISA plate. This plate is covered and incubated for 30 minutes at RT. Plate is washed five times with washing solution and incubated with standards or unknown samples in appropriate wells followed by primary Ab. Incubate overnight for 18 hours at 4° C. followed by washing with buffer. Secondary incubation includes a peroxidase conjugated goat anti-rabbit IgG added to each well and incubation at RT for 1 hour. Incubation with chromogenic substrate solution for 15 minutes at RT in the dark develops the plate for analysis. Stopping solution halts the reaction, absorbance is measured within 2 hours at 450 nm.

[3] = test system: NZM mice; assay: Antibody secreting B-cell Elispot (anti-chromatin, total IgG ASC), spleens of NZM mice (Example 2)
Method: (§1) FIG. 34 depicts the frequency of anti-chromatin antibody secreting cells in the spleens of NZM mice. NZM treated mice spleens were processed for splenocytes for ex vivo Elispot assays. Elispot wells were coated with 10 μg/mL of boiled chicken chromatin or ovalbumin protein. Fresh, whole splenocytes were added to each well at 50,000 cells per well in cell culture medium. Cells were incubated overnight at 37° C. Developed wells provided spots that were counted as frequency of ASCs per million splenocytes.
as §1, with “35” for “34”, “total IgG” for “anti-chromatin”, “anti-mouse IgG, IgH, and IgL chains.” for “boiled chicken chromatin or ovalbumin protein.”
B-cell Elispot components are ordered from MabTech (Nacka Strand, Sweden) and nitrocellulose IP filter plates are ordered from Millipore (Billerica, Mass.). Elispot wells are coated with either purified bovine thymus dsDNA (Sigma), purified bovine Smith antigen (GenWay) or boiled filtered purified chicken chromatin from lysed chicken red blood cells (Rockland, Gilbertsville, Pa.) at 10 μg/mL. Spleens are processed using glass homogenization (frosted slides). Dispersed cell contents are washed in sterile HBSS and RBCs lysed using 1×RBC lysis buffer (BioLegend, Cat #420301). Processed splenocytes are added to each well and are not stimulated with lipopolysaccharide (LPS) to avoid skewing of true ex vivo frequencies of antibody-secreting cell types (ASCs). Anti-mouse pan-IgG is used as a positive control for total IgG producing ASCs and is used to normalize results. Frequencies for each antigen are identified in an initial test phase for each model. For chromatin and total IgG only, 30,000 splenocytes are added to each well; for Smith antigen and dsDNA, 500,000 cells are added to each well. Different numbers of splenocytes are added for different antigens due to saturation limits of spot frequencies per well. B-cell Elispots are incubated overnight at 37° C. To develop each assay, secondary antibody is added to each well, incubated, washed and alkaline phosphatase strepavidin (Jackson ImmunoResearch, West Grove, Pa.) is used as the conjugate; substrate used is BCIP-NBT (MabTech, Cincinnati, Ohio). Plates are developed until spots are visible. All Elispot analyses are performed using an Immunospot C.T.L. scanner and Biospot software (Cellular Technology Ltd., Shaker Heights, Ohio). Results are shown as values from which media and cells only wells are subtracted. Some values are negative due to high background.

[4] = test system: NZM mice; assay: Antinuclear antibody (ANA) ELISA (anti-chromatin, anti-Smith Ag, anti-dsDNA), serum of NZM mice (Example 2)
[5] = test system: NZM mice; assay: Renal histopathology scoring (kidney IC-GN), NZM mice (Example 2)
Method: For histological analyses, the left kidney from each animal is removed and fixed in 10% buffered neutral formalin (EMD) for 48 hours on an orbital rocker at 25° C., then washed overnight with running dH2O and stored in 70% ethanol at 4° C. until ready to be processed. Kidney stains used for histological analyses included hematoxylin and eosin (H&E), Periodic Acid Schiff (PAS) and Trichrome stains (Wistar Institute, Philadelphia, Pa.). All 3 stained sections are used by the pathologist for scoring purposes. All histological scoring is performed blinded and by an independent board certified veterinary medical pathologist (Julie Engiles, VMD, DACVP). Multiple stains are used to determine score values. Images in FIG. 39 show worst affected area of section selected blindly by the pathologist.
Kidney IC-GN Scoring Method (Smith, Dong et al. 2007):
1. Glomerular cellularity—Score 1-5: Null, low, moderate, high, severe
2. Glomerular necrosis—Score 1-5: Null, low, moderate, high, severe
3. Glomerulosclerosis—Score 1-5: Null, low, moderate, high, severe
4. Interstitial infiltration—Score 1-5: Null, low, moderate, high, severe
5. Tubular atrophy—Score 1-5: Null, low, moderate, high, severe
6. Interstitial fibrosis—Score 1-5: Null, low, moderate, high, severe
7. Vasculitis—Score 1-5: Null, low, moderate, high, severe
Specific Pathologist Definitions: • Necrosis is defined by the presence of nuclear debris/pyknosis within the glomerular tuft indicative of “necrosis.” In many samples, this is a very mild, rare finding within only a very few segments of the glomerular tuft. Also consider effacement of the glomerular tuft by PAS positive, Trichrome negative material necrosis. • Glomerular sclerosis is defined by increased fibroplasia or fibrosis within the glomerular tuft or capsule. […] Most of the vascular changes are mild and could be considered “arteriosclerosis” characterized by proliferation of the smooth muscle cells, and hyalinization of the extracellular matrix. This change may reflect hypertension secondary to glomerular pathology. In very few animals is there overt “vasculitis.” Most inflammatory changes are within the walls of the blood vessels, with little to no damage to the endothelium, and no overt hemorrhage/fibrin leakage. Many also have perivascular rims of fibroblasts.

`O=P1(N(CCCl)CCCl)NCCCO1` (stereo not drawn) [CTX, Cyclophosphamide] was tested, and the “p, serum MIG concentration vs G5 Bortezomib 0.3 mg/kg 1× wk ip” value [1] was “p < 0.001”, the “p, serum MIG concentration vs G6 Bortezomib 0.3 mg/kg 2× wk ip” value [1] was “p < 0.001” and the “p, serum MIG concentration vs G8 Dex 1.5 mg/kg 3× wk ip” value [1] was “p < 0.001”. The “p, serum MIG concentration vs G9 Vehicle 1× wk ip” value [1] was “p < 0.001”, the “p, serum TNFα concentration vs G5 Bortezomib 0.3 mg/kg 1× wk ip” value [1] was “NS (NS = not significant (p > 0.05))” and the “p, serum TNFα concentration vs G6 Bortezomib 0.3 mg/kg 2× wk ip” value [1] was “NS (NS = not significant (p > 0.05))”. For the same compound, the “p, serum TNFα concentration vs G8 Dex 1.5 mg/kg 3× wk ip” value [1] was “p <0.05”, the “p, serum TNFα concentration vs G9 Vehicle 1× wk ip” value [1] was “NS (NS = not significant (p > 0.05))” and the “Serum CTx linker AUC, percent change vs vehicle” value [2] was −26%. The “ASC chromatin EOS, percent change vs vehicle” value ([3]; G6 50 mg/kg ip, 1× wk) was −100%, the “ASC total IgG EOS, percent change vs vehicle” value ([3]; G6 50 mg/kg ip, 1× wk) was −93% and the “p, frequency of anti-chromatin antibody secreting cells in spleen vs G5 Bortezomib 0.3 mg/kg 1× wk ip” value ([3]; G7 50 mg/kg 1× wk ip) was “P < 0.05”. The “p, frequency of anti-chromatin antibody secreting cells in spleen vs G6 Bortezomib 0.3 mg/kg 2× wk ip” value ([3]; G7 50 mg/kg 1× wk ip) was “p < 0.05”, the “p, frequency of anti-chromatin antibody secreting cells in spleen vs G9 Vehicle 1× wk ip” value ([3]; G7 50 mg/kg 1× wk ip) was “p < 0.01” and the “p, frequency of total IgG antibody secreting cells in spleen vs G5 Bortezomib 0.3 mg/kg 1× wk ip” value ([3]; G7 50 mg/kg 1× wk ip) was “p < 0.001”. The “p, frequency of total IgG antibody secreting cells in spleen vs G6 Bortezomib 0.3 mg/kg 2× wk ip” value ([3]; G7 50 mg/kg 1× wk ip) was “p < 0.001”, the “p, frequency of total IgG antibody secreting cells in spleen vs G8 Dex 1.5 mg/kg 3× wk ip” value ([3]; G7 50 mg/kg 1× wk ip) was “P < 0.01” and the “p, frequency of total IgG antibody secreting cells in spleen vs G9 Vehicle 1× wk ip” value ([3]; G7 50 mg/kg 1× wk ip) was “p < 0.01”. The “ANA Smith Ag AUC, percent change vs vehicle” value ([4]; G6 50 mg/kg ip, 1× wk) was −86%, the “ANA chromatin AUC, percent change vs vehicle” value ([4]; G6 50 mg/kg ip, 1× wk) was −51% and the “ANA dsDNA AUC, percent change vs vehicle” value ([4]; G6 50 mg/kg ip, 1× wk) was −66%. The “reduction in anti-chromatin Ab relative to vehicle, significance” value ([4]; bortezomib, Dex or CTX treatment groups) was “none of which was significant”, the “p, glomerular cellularity (GC) vs G7 Vehicle” value ([5]; G5 50 mg/kg 1× wk) was “p < 0.05” and the “Kidney glomerular cellularity, percent change vs vehicle” value ([5]; G6 50 mg/kg ip, 1× wk) was −7%. The “Kidney glomerular necrosis, percent change vs vehicle” value ([5]; G6 50 mg/kg ip, 1× wk) was 42%, the “Kidney glomerulosclerosis, percent change vs vehicle” value ([5]; G6 50 mg/kg ip, 1× wk) was 34% and the “Kidney interstitial fibrosis, percent change vs vehicle” value ([5]; G6 50 mg/kg ip, 1× wk) was 11%. The “Kidney interstitial infiltration, percent change vs vehicle” value ([5]; G6 50 mg/kg ip, 1× wk) was 11%, the “Kidney tubular atrophy, percent change vs vehicle” value ([5]; G6 50 mg/kg ip, 1× wk) was 18% and the “Kidney vasculitis, percent change vs vehicle” value ([5]; G6 50 mg/kg ip, 1× wk) was 9%.
